Where a name gives a salt, the structure may show the parent alone. Read-outs that look alike come from different tables or passages of the source.
Legend:
[1] = biological target: T1, mTOR (Homo sapiens, UniProt P42345); experiment: mTOR kinobeads assay (competitive binding in Jurkat cell lysate, immunodetection)
T1 construct: endogenous in cells; host or cells: Jurkat, clone E6-1 (ATCC TIB-152) cell lysate
Outline: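 IC50 derived from dose-response curves of mTOR captured on immobilized phenylmorpholin-chromen beads, detected by antibody dot blot with infrared fluorescence.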

[2] = biological target: T2, PI3 Kbeta (PI3 Kb) (Homo sapiens, UniProt P42338); experiment: kinobeads assay, PI3Kbeta; type: binding
T2 construct: endogenous in cells; host or cells: cell lysate
Description: The kinobeads assay was performed as a competitive binding assay in which test compounds were added directly into a cell lysate. Test compounds (at various concentrations) and the affinity matrix (beads with immobilized phenylmorpholin-chromen ligand) were added to cell lysate aliquots and allowed to bind to the proteins contained in the lysate sample. After the incubation time the beads with captured proteins were separated from the lysate. Bound proteins were then eluted and the presence of kinases was detected and quantified using a multiplexed immunodetection format. Dose response curves for individual kinases were generated and IC50 values calculated.
The effect of the compounds on the kinases PI3Kalpha (PI3Ka), PI3 Kbeta (PI3 Kb) and PI3 Kgamma (PI3 Kg) were tested in the kinobeads assay as described (WO-A 2009/098021).

[3] = biological target: T3, DNA-dependent protein kinase (DNA-PK) (Homo sapiens, UniProt P78527); experiment: kinobeads assay, DNA-PK; type: binding
T3 construct: endogenous in cells; host or cells: Jurkat, clone E6-1 (ATCC TIB-152) cell lysate
Outline: (§1)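 Competitive binding in Jurkat cell lysate (5 mg/ml total protein): test compounds at various concentrations competed with beads bearing immobilized phenylmorpholin-chromen ligand. Bead-bound kinases were eluted and quantified by antibody dot blot with infrared detection; IC50 values came from dose-response curves.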

[4] = biological target: T4, PI3K delta (PI3 Kd) (Homo sapiens, UniProt O00329); experiment: kinobeads assay, PI3K delta; type: binding
T4 construct: endogenous in cells; host or cells: Jurkat, clone E6-1 (ATCC TIB-152) cell lysate
Outline: as §1

[5] = biological target: T5, PI3Kalpha (PI3Ka) (Homo sapiens, UniProt P42336); experiment: kinobeads assay, PI3Kalpha; type: binding
T5 construct: endogenous in cells; host or cells: cell lysate
Outline: (§2)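 Competitive binding in cell lysate: test compounds at various concentrations compete with beads carrying an immobilized phenylmorpholin-chromen ligand. Bead-captured kinases are eluted and quantified by multiplexed immunodetection. IC50 values come from dose-response curves for each kinase.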

[6] = biological target: T6, PI3 Kgamma (PI3 Kg) (Homo sapiens, UniProt P48736); experiment: kinobeads assay, PI3Kgamma; type: binding
T6 construct: endogenous in cells; host or cells: cell lysate
Outline: as §2

[7] = kinobeads assay, Table 6, read-out: Inhibition values (IC50) mTOR
[8] = kinobeads assay, Table 6, read-out: Inhibition values (IC50) PI3Kb
[9] = kinobeads assay, Table 6, read-out: Inhibition values (IC50) DNAPK
[10] = kinobeads assay, Table 6, read-out: Inhibition values (IC50) PI3Kd
[11] = kinobeads assay, Table 6, read-out: Inhibition values (IC50) PI3Ka
[12] = kinobeads assay, Table 6, read-out: Inhibition values (IC50) PI3Kg
[13] = Further Kinobeads Data, read-out: mTor
[14] = Further Kinobeads Data, read-out: PI3Kb
[15] = Further Kinobeads Data, read-out: DNAPK
[16] = Further Kinobeads Data, read-out: PI3Kd
[17] = Further Kinobeads Data, read-out: PI3Kg
[18] = Further Kinobeads Data, read-out: PI3Ka

T6 sequence (P48736 whole entry): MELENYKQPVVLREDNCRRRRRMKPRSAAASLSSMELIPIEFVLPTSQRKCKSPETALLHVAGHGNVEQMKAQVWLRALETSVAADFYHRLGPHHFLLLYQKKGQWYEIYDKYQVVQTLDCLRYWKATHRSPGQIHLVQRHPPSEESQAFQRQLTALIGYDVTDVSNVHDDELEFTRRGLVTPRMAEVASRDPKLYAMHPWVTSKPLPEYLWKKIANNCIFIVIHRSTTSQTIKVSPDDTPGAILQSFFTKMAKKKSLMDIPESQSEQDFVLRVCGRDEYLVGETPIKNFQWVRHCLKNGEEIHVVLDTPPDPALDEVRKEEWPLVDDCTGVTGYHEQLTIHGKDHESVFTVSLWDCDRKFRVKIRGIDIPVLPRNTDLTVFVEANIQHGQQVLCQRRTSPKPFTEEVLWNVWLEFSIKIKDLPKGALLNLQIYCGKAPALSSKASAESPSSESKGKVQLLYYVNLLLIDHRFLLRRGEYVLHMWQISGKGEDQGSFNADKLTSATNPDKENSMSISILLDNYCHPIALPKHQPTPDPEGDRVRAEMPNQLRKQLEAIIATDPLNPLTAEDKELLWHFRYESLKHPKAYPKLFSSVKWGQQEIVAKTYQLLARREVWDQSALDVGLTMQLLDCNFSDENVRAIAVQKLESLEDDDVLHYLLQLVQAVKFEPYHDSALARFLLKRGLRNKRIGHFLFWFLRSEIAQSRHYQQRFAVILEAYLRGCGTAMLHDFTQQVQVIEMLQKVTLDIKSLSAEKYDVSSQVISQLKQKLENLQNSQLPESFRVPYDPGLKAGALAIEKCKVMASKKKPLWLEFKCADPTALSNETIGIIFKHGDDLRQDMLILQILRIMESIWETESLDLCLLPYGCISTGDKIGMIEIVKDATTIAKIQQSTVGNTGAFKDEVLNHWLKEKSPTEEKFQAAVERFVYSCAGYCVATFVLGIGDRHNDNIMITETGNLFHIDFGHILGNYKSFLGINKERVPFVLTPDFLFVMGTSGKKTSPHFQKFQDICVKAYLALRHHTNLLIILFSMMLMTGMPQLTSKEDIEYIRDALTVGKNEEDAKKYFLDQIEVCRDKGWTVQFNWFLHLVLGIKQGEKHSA
T2 sequence (P42338 whole entry): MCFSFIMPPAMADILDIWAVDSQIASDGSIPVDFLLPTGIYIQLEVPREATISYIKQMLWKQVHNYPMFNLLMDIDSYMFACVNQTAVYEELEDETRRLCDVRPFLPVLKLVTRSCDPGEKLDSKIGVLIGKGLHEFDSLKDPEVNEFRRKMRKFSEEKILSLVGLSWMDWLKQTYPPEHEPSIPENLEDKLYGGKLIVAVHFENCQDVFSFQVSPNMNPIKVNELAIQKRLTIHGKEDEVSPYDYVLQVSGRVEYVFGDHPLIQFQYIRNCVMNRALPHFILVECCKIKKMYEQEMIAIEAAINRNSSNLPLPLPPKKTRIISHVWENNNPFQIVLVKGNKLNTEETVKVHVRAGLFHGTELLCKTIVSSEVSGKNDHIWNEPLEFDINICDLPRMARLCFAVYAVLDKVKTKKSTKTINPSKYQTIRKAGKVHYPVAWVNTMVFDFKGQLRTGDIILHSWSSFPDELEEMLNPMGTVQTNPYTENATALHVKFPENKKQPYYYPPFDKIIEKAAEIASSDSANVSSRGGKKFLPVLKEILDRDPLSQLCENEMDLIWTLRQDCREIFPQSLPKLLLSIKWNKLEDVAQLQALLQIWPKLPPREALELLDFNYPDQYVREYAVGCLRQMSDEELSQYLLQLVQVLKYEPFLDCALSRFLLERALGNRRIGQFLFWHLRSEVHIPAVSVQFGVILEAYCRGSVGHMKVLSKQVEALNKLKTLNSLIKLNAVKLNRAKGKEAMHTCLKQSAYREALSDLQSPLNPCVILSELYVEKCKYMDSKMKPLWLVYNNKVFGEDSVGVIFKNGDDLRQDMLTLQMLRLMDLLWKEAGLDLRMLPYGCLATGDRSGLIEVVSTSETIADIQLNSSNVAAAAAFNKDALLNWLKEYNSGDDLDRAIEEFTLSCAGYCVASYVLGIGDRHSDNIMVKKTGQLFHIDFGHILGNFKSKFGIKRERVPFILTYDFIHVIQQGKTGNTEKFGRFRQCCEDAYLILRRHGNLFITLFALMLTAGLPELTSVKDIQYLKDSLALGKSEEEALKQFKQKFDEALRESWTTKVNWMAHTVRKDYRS
T2 sequence (P27986 whole entry partner): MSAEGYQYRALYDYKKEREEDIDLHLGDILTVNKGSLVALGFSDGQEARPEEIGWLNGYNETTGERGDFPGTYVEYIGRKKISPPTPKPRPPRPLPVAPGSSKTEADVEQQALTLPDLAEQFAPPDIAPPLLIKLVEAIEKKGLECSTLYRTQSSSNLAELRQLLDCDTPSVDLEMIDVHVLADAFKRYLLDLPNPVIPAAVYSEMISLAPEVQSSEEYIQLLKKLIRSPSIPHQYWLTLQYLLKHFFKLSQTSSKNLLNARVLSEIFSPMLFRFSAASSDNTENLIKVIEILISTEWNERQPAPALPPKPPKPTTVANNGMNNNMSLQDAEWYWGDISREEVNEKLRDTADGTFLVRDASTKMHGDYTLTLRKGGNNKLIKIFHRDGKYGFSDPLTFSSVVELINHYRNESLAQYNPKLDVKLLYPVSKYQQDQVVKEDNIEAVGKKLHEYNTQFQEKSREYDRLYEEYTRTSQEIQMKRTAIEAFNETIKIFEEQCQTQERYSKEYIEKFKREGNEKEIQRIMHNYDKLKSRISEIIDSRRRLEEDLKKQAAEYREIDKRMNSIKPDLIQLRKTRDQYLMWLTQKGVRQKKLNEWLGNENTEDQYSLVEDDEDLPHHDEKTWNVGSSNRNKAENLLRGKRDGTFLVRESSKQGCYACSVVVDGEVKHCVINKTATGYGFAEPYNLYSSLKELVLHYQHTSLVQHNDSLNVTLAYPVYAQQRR
T4 sequence (O00329 whole entry): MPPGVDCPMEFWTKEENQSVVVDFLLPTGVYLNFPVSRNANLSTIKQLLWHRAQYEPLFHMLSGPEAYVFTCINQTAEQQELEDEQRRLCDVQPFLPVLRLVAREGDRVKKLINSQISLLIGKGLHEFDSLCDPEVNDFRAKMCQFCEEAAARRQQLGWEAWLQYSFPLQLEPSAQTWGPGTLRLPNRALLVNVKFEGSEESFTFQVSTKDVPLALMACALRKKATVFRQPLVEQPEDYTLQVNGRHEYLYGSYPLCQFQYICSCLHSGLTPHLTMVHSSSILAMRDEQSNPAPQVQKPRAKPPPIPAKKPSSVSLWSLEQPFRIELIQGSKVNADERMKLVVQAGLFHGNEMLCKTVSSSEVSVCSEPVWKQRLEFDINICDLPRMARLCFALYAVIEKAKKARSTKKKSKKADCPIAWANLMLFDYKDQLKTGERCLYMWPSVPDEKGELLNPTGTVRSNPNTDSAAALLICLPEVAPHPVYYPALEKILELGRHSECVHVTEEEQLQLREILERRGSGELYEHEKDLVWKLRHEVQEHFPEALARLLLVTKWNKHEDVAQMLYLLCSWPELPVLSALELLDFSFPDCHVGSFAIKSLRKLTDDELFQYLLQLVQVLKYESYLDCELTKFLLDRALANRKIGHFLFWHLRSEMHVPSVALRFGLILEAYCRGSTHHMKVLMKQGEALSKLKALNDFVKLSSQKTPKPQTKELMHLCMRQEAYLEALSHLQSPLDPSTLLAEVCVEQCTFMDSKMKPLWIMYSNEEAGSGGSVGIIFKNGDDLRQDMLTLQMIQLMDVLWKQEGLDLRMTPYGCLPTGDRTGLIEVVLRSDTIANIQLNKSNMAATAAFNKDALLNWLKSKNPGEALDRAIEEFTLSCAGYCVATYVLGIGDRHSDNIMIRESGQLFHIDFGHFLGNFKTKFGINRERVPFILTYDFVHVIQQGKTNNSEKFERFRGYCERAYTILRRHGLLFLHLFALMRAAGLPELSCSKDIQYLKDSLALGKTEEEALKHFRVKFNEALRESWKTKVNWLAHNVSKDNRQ
T4 sequence (P27986 whole entry partner): as the sequence (P27986 whole entry partner) above
T5 sequence (P42336 whole entry): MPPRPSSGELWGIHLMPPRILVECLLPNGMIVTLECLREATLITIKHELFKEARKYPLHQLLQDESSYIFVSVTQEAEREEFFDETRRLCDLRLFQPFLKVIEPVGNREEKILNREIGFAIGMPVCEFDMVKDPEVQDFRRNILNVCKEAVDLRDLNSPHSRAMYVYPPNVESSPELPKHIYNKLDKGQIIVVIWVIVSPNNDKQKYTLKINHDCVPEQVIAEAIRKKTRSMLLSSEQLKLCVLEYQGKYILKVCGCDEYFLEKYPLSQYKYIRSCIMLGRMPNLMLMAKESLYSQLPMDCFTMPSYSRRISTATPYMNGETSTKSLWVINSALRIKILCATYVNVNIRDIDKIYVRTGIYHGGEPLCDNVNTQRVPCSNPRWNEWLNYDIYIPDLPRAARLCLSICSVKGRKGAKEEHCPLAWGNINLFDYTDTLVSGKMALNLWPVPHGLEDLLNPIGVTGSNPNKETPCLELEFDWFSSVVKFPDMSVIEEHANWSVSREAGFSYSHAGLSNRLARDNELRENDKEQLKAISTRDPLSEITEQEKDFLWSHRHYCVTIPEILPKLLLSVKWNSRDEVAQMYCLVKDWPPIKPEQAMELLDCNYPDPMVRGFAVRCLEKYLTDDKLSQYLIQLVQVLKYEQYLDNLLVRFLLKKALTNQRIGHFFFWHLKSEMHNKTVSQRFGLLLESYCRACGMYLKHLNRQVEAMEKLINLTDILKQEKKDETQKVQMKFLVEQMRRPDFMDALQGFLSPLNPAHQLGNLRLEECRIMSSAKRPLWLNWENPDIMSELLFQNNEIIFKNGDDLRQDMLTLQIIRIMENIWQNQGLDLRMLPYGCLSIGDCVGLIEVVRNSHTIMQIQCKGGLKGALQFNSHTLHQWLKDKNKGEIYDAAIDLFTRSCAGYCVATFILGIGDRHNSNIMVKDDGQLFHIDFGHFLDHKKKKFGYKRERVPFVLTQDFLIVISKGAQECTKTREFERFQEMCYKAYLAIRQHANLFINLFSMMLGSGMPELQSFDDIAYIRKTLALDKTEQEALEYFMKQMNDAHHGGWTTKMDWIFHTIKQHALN
T5 sequence (P27986 whole entry partner): as the sequence (P27986 whole entry partner) above

Row | IC50 [1, 7] [nM] | IC50 [2, 8] [µM] | IC50 [3, 9] [µM] | IC50 [4, 10] [µM] | IC50 [5, 11] [µM] | IC50 [6, 12] [µM] | IC50 [1, 13] [nM] | IC50 [2, 14] [µM] | IC50 [3, 15] [µM] | IC50 [4, 16] [µM] | PI3Ka ([5]; Further Kinobeads Data) | IC50 [6, 17] [µM] | IC50 [5, 18] [µM] | Structure (SMILES)
1 | < 100 | > 10 | > 10 | > 10 | 1 to 10 | > 10 |  |  |  |  |  |  |  | C[C@H]1COCCN1c1nc(-c2ccc(NC(=O)NC3CC3)cc2)nc2c1CN(CCCC(=O)O)C2 [Example 134, (S)-4-(2-(4-(3-cyclopropylureido)phenyl)-4-(3-methylmorpholino)-5H-pyrrolo[3,4-d]pyrimidin-6(7H)-yl)butanoic acid]
2 | < 100 | 1 to 10 | > 10 | 1 to 10 | 1 to 10 | > 10 |  |  |  |  |  |  |  | CC(=O)N(C)CCC(=O)N1Cc2nc(-c3ccc(NC(=O)NC4CC4)cc3)nc(N3CCOC[C@@H]3C)c2C1 [Example 135, (S)—N-(3-(2-(4-(3-cyclopropylureido)phenyl)-4-(3-methylmorpholino)-5H-pyrrolo[3,4-d]pyrimidin-6(7H)-yl)-3-oxopropyl)-N-methylacetamide]
3 | < 100 | 1 to 10 | > 10 | 1 to 10 | 1 to 10 | > 10 |  |  |  |  |  |  |  | C[C@H]1COCCN1c1nc(-c2ccc(NC(=O)NC3CC3)cc2)nc2c1CN(C(=O)CCNC(N)=O)C2 [Example 136, (S)-1-cyclopropyl-3-(4-(4-(3-methylmorpholino)-6-(3-ureidopropanoyl)-6,7-dihydro-5H-pyrrolo[3,4-d]pyrimidin-2-yl)phenyl)urea]
4 |  |  |  |  |  |  | 1000 to 10000 | > 10 | > 10 | > 10 | D (D >10 μM) | > 10 |  | CCNC(=O)Nc1c(F)cc(-c2nc3c(c(N4CCOC[C@@H]4C)n2)CN(C)C3)cc1F [Example 139, (S)-1-(2,6-difluoro-4-(6-methyl-4-(3-methylmorpholino)-6,7-dihydro-5H-pyrrolo[3,4-d]pyrimidin-2-yl)phenyl)-3-ethylurea]
5 |  |  |  |  |  |  | 1000 to 10000 | > 10 | > 10 | > 10 | D (D >10 μM) | > 10 |  | CCNC(=O)Nc1ccc(-c2nc3c(c(N4CCOC[C@@H]4C)n2)CN(C)C3)c(F)c1F [Example 140, (S)-1-(2,3-difluoro-4-(6-methyl-4-(3-methylmorpholino)-6,7-dihydro-5H-pyrrolo[3,4-d]pyrimidin-2-yl)phenyl)-3-ethylurea]
6 |  |  |  |  |  |  | > 10000 | > 10 | > 10 | > 10 | D (D >10 μM) | > 10 |  | CCNC(=O)Nc1cc(F)c(-c2nc3c(c(N4CCOC[C@@H]4C)n2)CN(C(=O)OCC)C3)c(F)c1 [Example 142, (S)-ethyl 2-(4-(3-ethylureido)-2,6-difluorophenyl)-4-(3-methylmorpholino)-5H-pyrrolo[3,4-d]pyrimidine-6(7H)-carboxylate]
7 |  |  |  |  |  |  | < 100 | > 10 | > 10 | > 10 | D (D >10 μM) | > 10 |  | CC(C)(C)OC(=O)N1Cc2nc(-c3ccc(NC(=O)NC4CC4)cc3F)nc(N3CCOCC3)c2C1 [Example 143, tert-Butyl 2-(4-(3-cyclopropylureido)-2-fluorophenyl)-4-morpholino-5H-pyrrolo[3,4-d]pyrimidine-6(7H)-carboxylate]
8 |  |  |  |  |  |  | 100 to 1000 | > 10 | > 10 | > 10 | D (D >10 μM) | > 10 |  | C[C@H]1COCCN1c1nc(-c2ccc(NC(=O)NC3CC3)cc2F)nc2c1CN(C(=O)OC(C)(C)C)C2 [Example 144, (S)-tert-Butyl 2-(4-(3-cyclopropylureido)-2-fluorophenyl)-4-(3-methylmorpholino)-5H-pyrrolo[3,4-d]pyrimidine-6(7H)-carboxylate]
9 |  |  |  |  |  |  | 100 to 1000 | > 10 | > 10 | > 10 | D (D >10 μM) | > 10 |  | CCNC(=O)Nc1ccc(-c2nc3c(c(N4CCOCC4)n2)CN(C(=O)OC(C)(C)C)C3)c(F)c1 [Example 145, tert-butyl 2-(4-(3-ethylureido)-2-fluorophenyl)-4-morpholino-5H-pyrrolo[3,4-d]pyrimidine-6(7H)-carboxylate]
10 |  |  |  |  |  |  | < 100 | > 10 | > 10 | > 10 | D (D >10 μM) | > 10 |  | Cl.O=C(Nc1ccc(-c2nc3c(c(N4CCOCC4)n2)CNC3)c(F)c1)NC1CC1 [Example 148, 1-(Cyclopropyl)-3-(3-fluoro-4-(4-morpholino-6,7-dihydro-5H-pyrrolo[3,4-d]pyrimidin-2-yl)phenyl)urea hydrochloride]
11 |  |  |  |  |  |  | 100 to 1000 | > 10 | > 10 | > 10 |  | > 10 | 1 to 10 | C[C@H]1COCCN1c1nc(-c2ccc(NC(=O)NC3CC3)cc2F)nc2c1CNC2 [Example 149, (S)-1-(Cyclopropyl)-3-(3-fluoro-4-(4-(3-methylmorpholino)-6,7-dihydro-5H-pyrrolo[3,4-d]pyrimidin-2-yl)phenyl)urea hydrochloride]
12 |  |  |  |  |  |  | < 100 | > 10 | > 10 | > 10 |  | > 10 | 1 to 10 | CCNC(=O)Nc1ccc(-c2nc3c(c(N4CCOCC4)n2)CNC3)c(F)c1 [Example 150, 1-Ethyl-3-(3-fluoro-4-(4-morpholino-6,7-dihydro-5H-pyrrolo[3,4-d]pyrimidin-2-yl)phenyl)urea hydrochloride]
13 |  |  |  |  |  |  | < 100 | > 10 | > 10 | 1 to 10 | D (D >10 μM) | > 10 |  | CCNC(=O)Nc1ccc(-c2nc3c(c(N4CCOC[C@@H]4C)n2)CN(C(C)=O)C3)c(F)c1 [Example 157, (S)-1-(4-(6-acetyl-4-(3-methylmorpholino)-6,7-dihydro-5H-pyrrolo[3,4-d]pyrimidin-2-yl)-3-fluorophenyl)-3-ethylurea]
14 |  |  |  |  |  |  | < 100 | > 10 | > 10 | > 10 | D (D >10 μM) | > 10 |  | CCNC(=O)Nc1ccc(-c2nc3c(c(N4CCOC[C@@H]4C)n2)CNC3)c(F)c1.Cl [Example 158, (S)-1-ethyl-3-(3-fluoro-4-(4-(3-methylmorpholino)-6,7-dihydro-5H-pyrrolo[3,4-d]pyrimidin-2-yl)phenyl)urea hydrochloride]
15 |  |  |  |  |  |  | < 100 | > 10 | > 10 | > 10 | D (D >10 μM) | > 10 |  | CCNC(=O)Nc1ccc(-c2nc3c(c(N4CCOCC4)n2)CN(C(C)=O)C3)c(F)c1 [Example 161, 1-(4-(6-acetyl-4-morpholino-6,7-dihydro-5H-pyrrolo[3,4-d]pyrimidin-2-yl)-3-fluorophenyl)-3-ethylurea]
16 |  |  |  |  |  |  | < 100 | > 10 | > 10 | > 10 | D (D >10 μM) | > 10 |  | CC(=O)N1Cc2nc(-c3ccc(NC(=O)NC4CC4)cc3F)nc(N3CCOCC3)c2C1 [Example 166, 1-(4-(6-Acetyl-4-morpholino-6,7-dihydro-5H-pyrrolo[3,4-d]pyrimidin-2-yl)-3-fluorophenyl)-3-cyclopropylurea]
17 |  |  |  |  |  |  | 100 to 1000 | > 10 | > 10 | > 10 | D (D >10 μM) | > 10 |  | COC(=O)N1Cc2nc(-c3ccc(NC(=O)NCCO)cc3F)nc(N3CCOCC3)c2C1 [Example 175, Methyl 2-(2-fluoro-4-(3-(2-hydroxyethyl)ureido)phenyl)-4-morpholino-5H-pyrrolo[3,4-d]pyrimidine-6(7H)-carboxylate]
18 |  |  |  |  |  |  | < 100 | > 10 | 1 to 10 | 1 to 10 |  | > 10 | 1 to 10 | C[C@@H]1COCCN1c1nc(-c2ccc(NC(=O)NC3CC3)cc2F)nc2c1CN(C(=O)OC(C)(C)C)C2 [Example 182, (R)-tert-butyl 2-(4-(3-cyclopropylureido)-2-fluorophenyl)-4-(3-methylmorpholino)-5H-pyrrolo[3,4-d]pyrimidine-6(7H)-carboxylate]
